Measurements reported in patent US20240166630A1, “INDOLE DERIVATIVES AS SEROTONERGIC AGENTS USEFUL FOR THE TREATMENT OF DISORDERS RELATED THERETO” (Mindset Pharma Inc., priority 2021, published 2024).
Where “and” joins values, the source holds several entries; their conditions need not be identical. Identical values can stand only once. Like-named read-outs stand apart in the source and are kept apart here.

Assays:
[1] = In vivo pharmacokinetics in male Sprague Dawley rats; parameters: species or system rat; conditions: 0.992 mg/kg s.c.; for AUC(0-t): read-out: AUC0-tlast
Source text: Example 13 (I-B-1): In Vivo Assessment of the Pharmacokinetics in Mice and Rats
(§1) 5. PK Analysis • i. Analysis software: Phoenix® WinNonlin® 8.2 (Pharsight, Certara, Mountainview, CA) • ii. Analysis methods: non-compartmental analysis, linear up/log down trapezoidal rule • iii. PK parameters: C0, t1/2, AUC0-tlast. AUC0-∞, CL, Vss, MRT, tmax(po), Cmax(po), F, as appropriate

[2] = target: T1, human 5-HT2A (h5-HT2A) receptor (Homo sapiens, UniProt P28223); assay: FLIPR assay, human 5-HT2A receptor under agonist mode; format: cell-based
T1 construct: expressed in transfected cells; kept under G418 and hygromycin B selection
Procedure: I. Assessment of the Activated Effect of Compounds of Formula I-B Targeting on Human 5-HT2A (h5-HT2A) Receptor Under Agonist Mode:
1. The cells were cultured in cell culture medium (DMEM containing 10% FBS, 1× penicillin-streptomycin 300 μg/ml G418 and 100 μg/ml hygromycin B) at 37° C., 5% (v/v) CO2.
2. One day before the assays, the cells were detached using TrypLE™ Express and count cells using cell counter.
3. 20000 cells/well were seeded in 30 μl/well culture medium to a 384-well cell plate and incubated the cells overnight at 37° C., 5% (v/v) CO2.
4. On the assay day, 2×dye solution was prepared following the manual of the FLIPR® Calcium 6 Assay Kit: i. The dye was diluted with assay buffer (20 mM HEPES in 1×HBSS, PH7.4); ii. probenecid was added to the final concentration of 5 mM; iii. Vortexed vigorously for 1-2 minutes.
5. Medium was removed from cell plate by flicking the cell plate on towel papers.
7. The cell plate was placed on plate shaker, the plate agitated at 600 rpm for 2 minutes. The plate was incubated at 37° C. for 2 hours followed by additional 15-minute incubation at 25° C.
8. 3×compound was prepared in assay buffer: a. Reference compounds were diluted to required concentration with DMSO. The compounds were added to a 384-well compound plate; b. Serial dilutions were performed; c. 10 mM test compounds were added to the compound plate, 3-fold serial dilutions were performed. […] 20 μl/well assay buffer was added to the compound plate; f.
9. The cell plate, compound plate and tips were placed into FLIPR, 10 μl of 3× compound was transferred to the cell plate per well with FLIPR.
i. The normalized fluorescence reading (RFU) was calculated as shown follow, while Fmax and Fmin stand for maximum and minimum of calcium signal during defined time window: RFU=Fmax−Fmin
ii. The percentage activation was calculated by using following equation: […]
iii. EC50 was calculated by fitting % activation against log of compound concentrations with Hill equation using Xlfit.

[3] = Liver microsomes stability with NADPH, rat
[4] = In vivo pharmacokinetics in male C57BL/6 mice; parameters: species or system mouse
Procedure: Animals: Male C57BL/6 mice (25-30 g) from Charles River Labs were acclimatized for a minimum of 5 days prior to dosing. Body weights were recorded on the day of dosing.
Food restriction: Animals dosed p.o. were deprived of food overnight and fed ˜2 h following dosing.
Dosing: Formulations were administered intravenously (i.v.) via the tail vein or orally (p.o.) by gavage with disposable feeding needles.
Sample collection: Serial blood samples was collected via tail snip. Terminal blood samples was collected under isoflurane anesthesia by cardiac puncture.
Sample processing/storage: All blood samples were transferred into K2EDTA tubes on wet ice and centrifuged within 5 min (3200× g for 5 min at 4° C.) to obtain plasma. Plasma was stored at −80° C. until analysis.
Instrumentation: AB Sciex QTRAP 4000 or 6500 MS/MS system equipped with an LC system with a binary pump, a solvent degasser, a thermostatted column compartment and a multiplate autosampler.
as §1

[5] = 9.92 mg/kg i.v., individual animals M10-M12
[6] = 9.92 mg/kg p.o., individual animals M13-M15
[7] = 9.92 mg/kg s.c., individual animals M16-M18

T1 sequence (P28223 whole entry): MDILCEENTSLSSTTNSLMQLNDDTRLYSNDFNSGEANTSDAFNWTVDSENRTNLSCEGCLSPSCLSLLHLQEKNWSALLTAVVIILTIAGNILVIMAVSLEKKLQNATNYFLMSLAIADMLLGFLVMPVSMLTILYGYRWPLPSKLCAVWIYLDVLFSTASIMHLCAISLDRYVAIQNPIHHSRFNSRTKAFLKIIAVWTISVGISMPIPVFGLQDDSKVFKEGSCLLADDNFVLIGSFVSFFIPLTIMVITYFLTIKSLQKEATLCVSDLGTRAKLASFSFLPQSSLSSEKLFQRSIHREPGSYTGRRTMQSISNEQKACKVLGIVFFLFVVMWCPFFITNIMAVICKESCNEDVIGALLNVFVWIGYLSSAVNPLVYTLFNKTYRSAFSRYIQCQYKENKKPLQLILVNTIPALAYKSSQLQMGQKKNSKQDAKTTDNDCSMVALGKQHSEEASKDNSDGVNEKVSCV

[2H]C([2H])(c1c[nH]c2ccccc12)[C@H]1CCCN1C([2H])([2H])[2H] [I-B-1, (R)-3-((1-(methyl-d3)pyrrolidin-2-yl)methyl-d2)-1H-indole]
F ([1]; Mean ± SD): 133 ± 10.1%
AUC0-tlast ([1]; individual animals): 137 ng·h/mL and 133 ng·h/mL
AUC(0-inf) ([1]; individual animals): 154 ng·h/mL and 133 ng·h/mL
Apparent t1/2 ([1]; individual animals): 0.990 h and 26.6^a h and 1.18 h
Cmax ([1]; individual animals): 140 ng/mL and 137 ng/mL and 64.6 ng/mL
F ([1]; individual animals): 132% and 144% and 124%
MRT0-inf ([1]; individual animals): 1.07 h and 9.03 h and 1.40 h
tmax ([1]; individual animals): 0.0833 h and 1.00 h
AUC(0-inf) ([1]; male, Sprague Dawley, rat, plasma, sc, 0.992 mg/kg, Mean ± SD, read-out: AUC0-inf): 143 ± 10.8 ng·h/mL
AUC(0-t) ([1]; male, Sprague Dawley, rat, plasma, sc, 0.992 mg/kg, Mean ± SD): 136 ± 3.91 ng·h/mL
Cmax ([1]; male, Sprague Dawley, rat, plasma, sc, 0.992 mg/kg, Mean ± SD, read-out: Cmax): 114 ± 42.7 ng/mL
MRT inf ([1]; male, Sprague Dawley, rat, plasma, sc, 0.992 mg/kg, Mean ± SD, read-out: MRT0-inf): 3.83 ± 4.5 h
tmax ([1]; male, Sprague Dawley, rat, plasma, sc, 0.992 mg/kg, Mean ± SD, read-out: tmax): 0.25 h
AUC(0-inf) ([1]; male, Sprague Dawley, rat, plasma, sc, 0.992 mg/kg, individual animals, read-out: AUC0-inf): 141 ng·h/mL
AUC(0-t) ([1]; male, Sprague Dawley, rat, plasma, sc, 0.992 mg/kg, individual animals): 140 ng·h/mL
half-life ([1]; male, Sprague Dawley, rat, plasma, sc, 0.992 mg/kg, mean (n = 2), outlier excluded, read-out: Apparent t1/2 (converted)): 1.09 h
EC50 [2]: 100 to 1000 nM
Remaining Percentage (%) after 60 min Rat ([3]; rat liver microsomes, with NADPH, 2 μM): 32.40%
half-life at 2 μM ([3]; rat, microsomes): 0.615 h
microsomal CLint at 2 μM ([3]; rat, microsomes): 37.6 µL/min/mg
AUC0-tlast [4, 5]: 3708 ng·h/mL and 4440 ng·h/mL
AUC(0-inf) [4, 5]: 3709 ng·h/mL and 4441 ng·h/mL
Apparent t1/2 [4, 5]: 2.16 h and 2.05 h
C0 [4, 5]: 3473 ng/mL and 3356 ng/mL
CL [4, 5]: 44.58 mL/min/kg and 37.23 mL/min/kg
MRT0-inf [4, 5]: 2.46 h and 2.57 h
Vss [4, 5]: 6.59 L/kg and 5.751 L/kg
F ([4]; 9.92 mg/kg p.o., Mean ± SD): 58.2 ± 18.4%
AUC0-tlast [4, 6]: 2782 ng·h/mL and 2260 ng·h/mL
AUC(0-inf) [4, 6]: 3099 ng·h/mL
Cmax [4, 6]: 516 ng/mL and 342 ng/mL
MRT0-inf [4, 6]: 8.54 h
tmax [4, 6]: 1.00 h and 0.500 h
F ([4]; 9.92 mg/kg p.o., individual animals M13-M15, for M15 AUC0-tlast used): 40.8% and 77.5% and 56.5%
Apparent t1/2 ([4]; 9.92 mg/kg p.o., individual animals, estimate may not be accurate): 9.46 h
F ([4]; 9.92 mg/kg s.c., Mean ± SD): 67.9 ± 6.24%
AUC0-tlast [4, 7]: 2833 ng·h/mL and 2429 ng·h/mL
AUC(0-inf) [4, 7]: 2834 ng·h/mL and 2431 ng·h/mL
Apparent t1/2 [4, 7]: 2.24 h and 2.56 h
Cmax [4, 7]: 1090 ng/mL and 950 ng/mL
